The subject of test [1] is Meloidogyne incognita J2 juveniles. In words: In vitro nematistatic assay (temporary paralysis). The test is classed as cell-based.
The test system of a further test is S. carpocapsae. Put plainly: In vitro nematistatic assay (temporary paralysis), non-target species. In kind it is cell-based. As to conditions: Steinernema carpocapsae; reversible paralysis, 24 h exposure.
A further test relates to R. blumi. The description is as above. The test is classed as cell-based, Rhabditis blumi.
Test [2] concerns non-target nematodes versus targeted PPNs. In words: Selectivity index, non-target nematodes over targeted PPNs. On the procedure: The selectivity index of a given SM was calculated by dividing the averages of the LC50 or EC50 values obtained against each of the selected non-target nematodes by the LC50 or the EC50 values observed for each of the targeted PPN tested.

Converted amounts (≈) assume the structure as drawn. Like-named read-outs stand apart in the source and are kept apart here. Where only a bound is given, the exact number is not on record here.

Data on 1 compound can be found in PMC8826726, “Selective Toxicity of Secondary Metabolites from the Entomopathogenic Bacterium Photorhabdus luminescens sonorensis against Selected Plant Parasitic Nematodes of the Tylenchina Suborder” (Microbiology Spectrum, 2022).

As a reminder, the EC50 is the concentration needed to bring the measured effect to its halfway point. In general, EC90 refers to the concentration needed for an effect of 90%. Read a high EC90 as a need for much substance. Turning to `c1ccc2[nH]ccc2c1` [Indole, indole], the EC10 is reported as 41.3 (36.8, 44.9) μg/mL in test [1] (24 h exposure); 44.3 (36.8, 49.7) μg/mL in test [1] (48 h exposure); 62.9 (31.4, 72.3) μg/mL in test [1] (72 h exposure). For the same compound, the EC25 in test [1] (24 h exposure) is 47.8 (43.9, 51.1) μg/mL; in test [1] (48 h exposure), 51.7 (45.0, 56.6) μg/mL; in test [1] (72 h exposure), 68.9 (42.1, 76.9) μg/mL. Moreover, the EC50 was 56.3 µg/mL (≈ 481 µM) in test [1] (24 h exposure); 56 µg/mL (≈ 478 µM) in test [1] (Meloidogyne incognita, 24 h, 24 h exposure, read-out: EC50); 61.3 µg/mL (≈ 523 µM) in test [1] (Meloidogyne incognita, 48 h, 48 h exposure, read-out: EC50); 76.3 µg/mL (≈ 651 µM) in test [1] (Meloidogyne incognita, 72 h, 72 h exposure, read-out: EC50); above 400 µg/mL in the test on S. carpocapsae; 37 µg/mL (≈ 316 µM) with R. blumi (Metarhabditis blumi, reversible paralysis, 24 h exposure). For the same compound, the EC90 in test [1] (Meloidogyne incognita, 24 h exposure) came to 77 µg/mL (≈ 657 µM); in test [1] (Meloidogyne incognita, 48 h exposure), 84.7 µg/mL (≈ 723 µM); in test [1] (Meloidogyne incognita, 72 h exposure), 92.5 µg/mL (≈ 790 µM). For the same compound, the “Reduction of 24-h EC50 against R. blumi versus C. elegans” value in the test on R. blumi (24 h) is recorded as 77%. In addition, the “Selectivity index (EC50), bacteria-feeding nematodes alone” value in test [2] (24 h EC50) is given as 2–3. In addition, the “Selectivity index (EC50), entomopathogenic nematodes alone” value in test [2] (24 h EC50) is recorded as 7-11. Besides, the “Selectivity index (EC50), selected non-target nematode species” value in test [2] (24 h EC50, all non-target species) was 5–8.
